Consider 15 molecules from ChEMBL document CHEMBL1201862, “PubChem BioAssay data set” (2004).

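1) Cells in 96-well plates. 2) Compound, 48 h, 5 concentrations. 3) Linear interpolation between surrounding doses. 4) Unreached endpoint = highest concentration. GI50 marks 50% less growth.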 The source made the active and inactive calls. Rule as the data show it: active = GI50 up to about 1.1 µM and inactive = higher. Bounds are passed on as bounds.

Some test systems named below: LXFL 529; SNB-78; RXF 631; DLD-1; HOP-18; XF498; KM-20L2; DMS-114; BT-549.
Holding throughout (assay): inhibition of tumour cell growth, NCI panel, 48 h

As to `CC(C)=CCCC(C)[C@H]1CC(O)C2(C)C3=CCC4C(C)(C)[C@@H](O)CC[C@]4(C)C3=CC[C@]12C` (stereo partly specified), the GI50 in the assay on LXFL 529 is 1.95 µM (inactive); in the assay with SNB-78, 7.13 µM (inactive); with RXF 631, 4.34 µM (inactive); in the assay on DLD-1, 3.87 µM (inactive); in the assay with HOP-18, 13.7 µM (inactive); in the assay on XF498, 8.34 µM (inactive). Besides, the values for the GI50 with KM-20L2 and with DMS-114 were 6.58 µM (inactive) and 10 µM (inactive), respectively.

For the molecule `O=C(Nc1c(Cl)cc([N+](=O)[O-])cc1Cl)C(=O)C(C1OC(=O)c2ccccc21)[N+](=O)[O-]` (stereo unspecified), the GI50 in the assay on LXFL 529 is > 100 µM (inactive); in the assay with SNB-78, 41.2 µM (inactive); in the assay on RXF 631 it was > 100 µM (inactive); with DLD-1, > 100 µM (inactive); in the assay on XF498 it was > 100 µM (inactive); in the assay with KM-20L2, > 100 µM (inactive). Further, the GI50 in the assay on DMS-114 was 92.3 µM (inactive).

In the case of `COc1ccc(OC(C(=O)O)C(C)C)c2c1CCCC2=O` (stereo unspecified), the GI50 in the assay with LXFL 529, with SNB-78, with RXF 631, in the assay with DLD-1, with HOP-18 and in the assay on XF498 was > 100 µM (inactive) throughout. Further, the GI50 in the assay on KM-20L2 and with DMS-114 was > 100 µM (inactive) throughout.

As to `Cc1noc(/N=C2\C=C(Nc3onc(C)c3C)C(=O)c3ccccc32)c1C`, the GI50 in the assay on LXFL 529 is 25.5 µM (inactive); in the assay with SNB-78, > 100 µM (inactive); in the assay with RXF 631, > 100 µM (inactive); in the assay on DLD-1, 96.8 µM (inactive); in the assay with HOP-18, 85.9 µM (inactive); in the assay on XF498, > 100 µM (inactive). Further, the GI50 in the assay on KM-20L2 was > 100 µM (inactive); in the assay on DMS-114, 15.3 µM (inactive).

On to `COc1ccc2c(c1)[n+]([O-])c(-c1c(Cl)cccc1Cl)c(N)[n+]2[O-]`, for which the GI50 with LXFL 529 is 39.9 µM (inactive); with SNB-78, 69.3 µM (inactive); in the assay with RXF 631, 25.3 µM (inactive); with DLD-1 it was 39.4 µM (inactive); in the assay with XF498, 24.6 µM (inactive); in the assay with KM-20L2 it was 42.2 µM (inactive). In addition, the GI50 with DMS-114 is 34.4 µM (inactive).

For the molecule `CC1=NOC(=O)C1/N=N/c1ccc(Br)c(C)c1` (stereo unspecified), the GI50 in the assay on LXFL 529 is 15.5 µM (inactive); in the assay with SNB-78, 26.4 µM (inactive); in the assay with DLD-1, 24.4 µM (inactive); in the assay with HOP-18, 3.31 µM (inactive); in the assay on XF498, 17.6 µM (inactive); with KM-20L2 it was 33.7 µM (inactive). Further, the GI50 in the assay with DMS-114 is 15.6 µM (inactive).

`COc1ccc(N2C(=O)[C@@H]3[C@@H]4CC(C)CC[C@@H]4c4c([nH]c5ccccc45)[C@@H]3C2=O)cc1` (stereo partly specified): the GI50 with LXFL 529 was 20.3 µM (inactive); in the assay on SNB-78 it was 3.76 µM (inactive); in the assay with DLD-1, 29.5 µM (inactive); in the assay with HOP-18, 4.4 µM (inactive); in the assay on XF498, 8.3 µM (inactive); in the assay with KM-20L2, > 54.8 µM (inactive). Besides, the GI50 in the assay on DMS-114 is 31.1 µM (inactive).

On to `COc1cc([C@@H]2c3cc4c(cc3[C@@H](NC(=O)c3ccc(C(C)=O)cc3)C3COC(=O)[C@@H]32)OCO4)cc(OC)c1O` (stereo partly specified), for which the GI50 is 5.56 µM (inactive) in the assay on LXFL 529; 8.99 µM (inactive) in the assay on SNB-78; 1.24 µM (inactive) with RXF 631; 1.4 µM (inactive) with DLD-1; > 100 µM (inactive) in the assay with HOP-18; 0.347 µM (active) in the assay on XF498. Also, the GI50 was 0.724 µM (active) in the assay on KM-20L2 and 0.659 µM (active) with DMS-114.

As for `CCOC(=O)NC1CC2CCC1(OC)C=C2C` (stereo unspecified), the GI50 in the assay with LXFL 529, in the assay on SNB-78, in the assay with DLD-1, in the assay on HOP-18, in the assay with XF498 and in the assay on KM-20L2 was > 100 µM (inactive) each time. The GI50 in the assay on DMS-114 was > 100 µM (inactive).

As for `COC(=O)c1nc(N)nc(C(=O)OC)c1C(=O)c1ccccc1`, the GI50 with LXFL 529, with RXF 631, in the assay with DLD-1, with HOP-18, in the assay on XF498 and in the assay with KM-20L2 was > 100 µM (inactive) in each case. Further, the GI50 with DMS-114 was > 100 µM (inactive).

Consider `CC1=C2O[B-](c3ccccc3)(c3ccccc3)[O+]=C2C=CN1`, for which the GI50 was 51.8 µM (inactive) in the assay on SNB-78; 44.9 µM (inactive) with RXF 631; 33.4 µM (inactive) in the assay on DLD-1; 12.5 µM (inactive) in the assay on XF498; 62.1 µM (inactive) in the assay on KM-20L2; 38.7 µM (inactive) with DMS-114.

With `CN1Cc2c(nc(-c3ccccc3)c[n+]2[O-])N(C)C1`, the GI50 in the assay with LXFL 529, in the assay with SNB-78, in the assay on RXF 631, with DLD-1, with HOP-18 and in the assay with XF498 was > 100 µM (inactive) throughout. Also, the GI50 in the assay with KM-20L2 and in the assay with DMS-114 was > 100 µM (inactive) each time.

Consider `CC1=CC(C)(C)N=C2SC(c3ccc(N)cc3)=NN12`, for which the GI50 was 31.6 µM (inactive) in the assay on LXFL 529; > 100 µM (inactive) with SNB-78; 50.7 µM (inactive) in the assay with RXF 631; 40.1 µM (inactive) with DLD-1; 1.47 µM (inactive) in the assay with HOP-18; 50.9 µM (inactive) in the assay with XF498. Besides, the GI50 in the assay on KM-20L2 was 46.6 µM (inactive); in the assay on DMS-114 it was 32.7 µM (inactive).

`O=C(CCN(C(=O)O)S(=O)(=O)c1ccc(NC(=O)c2ccccc2)cc1)NC1CCCCC1`: the GI50 with LXFL 529 was > 100 µM (inactive); in the assay on SNB-78, > 100 µM (inactive); in the assay on DLD-1, 62.5 µM (inactive); in the assay on HOP-18 it was > 100 µM (inactive); in the assay with XF498, > 100 µM (inactive); in the assay on KM-20L2, > 100 µM (inactive). Moreover, the GI50 in the assay on DMS-114 was > 100 µM (inactive).

In the case of `COc1cc2nncc(SCc3ccc(Cl)c(Cl)c3)c2cc1OC`, the GI50 in the assay on LXFL 529 is 17.7 µM (inactive); in the assay on SNB-78, 40.7 µM (inactive); in the assay with BT-549, > 100 µM (inactive); in the assay on RXF 631 it was 72.1 µM (inactive); in the assay with HOP-18, > 100 µM (inactive); in the assay on XF498 it was 21.5 µM (inactive). Moreover, the GI50 is 6.85 µM (inactive) in the assay on KM-20L2 and > 100 µM (inactive) in the assay with DMS-114.
